Measurements as given in PMC7539012, “Hyperphosphorylated tau aggregation and cytotoxicity modulators screen identified prescription drugs linked to Alzheimer's disease and cognitive functions” (Scientific Reports, 2020).
Where a name gives a salt, the structure may show the parent alone. Where a SMILES comes first, the peptide text is derived from it. Bridges are numbered along the chain shown (N, C = ends). [ ]: non-standard residue; d: D form. The star is where a group is joined. X2 = CCC(C)C(N)C1=NC(C(=O)*)CS1; dOrn = NCCC[C@@H](N)C(=O)O

These molecules were tested on T1, 1N4R p-tau (assay: p-tau aggregation modulator screen of 1280-compound library (ThS fluorescence net change over 16 h)). Settings: not given.
T1 construct: made in house; host or cells: E. coli (PIMAX system)
Assay type: biochemical
Design: key to PTAI>3SD: *: PTAI>3SD

Compared with `O.O=P(O)(O)C(O)(Cc1cccnc1)P(=O)(O)O` [Risedronic acid monohydrate], `Clc1ccc(CCC(Cn2ccnc2)Sc2c(Cl)cccc2Cl)cc1` (centres unmarked) [Butoconazole nitrate] is lower in ThS net change: 455 for the first, 237 for the second.

First: Clc1ccc(CO/N=C(\Cn2ccnc2)c2ccc(Cl)cc2Cl)c(Cl)c1 [Oxiconazole Nitrate]
Second: Cc1ccc(O)c([C@H](CCN(C(C)C)C(C)C)c2ccccc2)c1 [Tolterodine tartrate]
The ThS net change of the first is lower: 211 for the first, 422 for the second.

First: CCC1(c2cccc(O)c2)CCCCN(C)C1 (centres unmarked) [Meptazinol hydrochloride]
Second: CN(C)CCCN1c2ccccc2CCc2ccccc21 [Imipramine hydrochloride]
The ThS net change of the first is higher: 462 for the first, 287 for the second.

Going from `O=C(O)c1cn(C2CC2)c2cc(N3CCNCC3)c(F)cc2c1=O` [Ciprofloxacin hydrochloride monohydrate] to `CC(=O)NC1CCSC1=O` (racemic) [N-Acetyl-DL-homocysteine Thiolactone], the ThS net change rises from 361 to 421.

Same assay, conditions: 30 µM compound, 6 µM p-tau, 16 h

For `CC/C(=C(/CC)c1ccc(O)cc1)c1ccc(O)cc1` [diethylstilbestrol, reference compound], the “effect on p-tau aggregation in pilot screen” value was “none of them affected p-tau aggregation”.

Same assay, conditions: 1280-compound library screen; ThS fluorescence net change over 16 h

Going from `CN(C)CC/C=C1/c2ccccc2Sc2ccc(Cl)cc21` [Chlorprothixene hydrochloride] to `CNCCC=C1c2ccccc2CCc2ccccc21` [Nortriptyline hydrochloride], the ThS net change falls from 392 to 380.

Going from `NC[C@H]1O[C@H](OC2[C@@H](N)C[C@@H](N)[C@H](O)[C@H]2O[C@@H]2O[C@H](CO)[C@@H](O)[C@H]2O)[C@H](N)[C@@H](O)[C@@H]1O.O=S(=O)(O)O` (some centres unmarked) [Ribostamycin sulfate salt] to `Nc1nc(=S)c2ncn([C@@H]3O[C@H](CO)[C@@H](O)[C@H]3O)c2[nH]1` [Thioguanosine], the ThS net change rises from 379 to 385.

Going from `CCN1CCC[C@H]1CNC(=O)c1c(O)c(Cl)cc(Cl)c1OC` [Raclopride] to `COc1cc(NS(=O)(=O)c2ccc(N)cc2)nc(OC)n1` [Sulfadimethoxine], the ThS net change falls from 382 to 380.

Compared with `CC/C(=C(/CC)c1ccc(O)cc1)c1ccc(O)cc1` [diethylstilbestrol, reference compound], `CC(C)C[C@H](NC(=O)[C@@H](O)[C@H](N)Cc1ccccc1)C(=O)O` [Ubenimex] is lower in ThS net change: 406 for the first, 390 for the second.

Compared with `Cc1ccc(S(=O)(=O)NC(=O)NN2CC3CCCC3C2)cc1` (centres unmarked) [Gliclazide], `OC(CCN1CCCCC1)(c1ccccc1)C1CC2C=CC1C2` (centres unmarked) [Biperiden hydrochloride] is higher in ThS net change: 379 for the first, 380 for the second.

Going from `Cn1c(=O)c2[nH]cnc2n(C)c1=O` [Theophylline monohydrate] to `CC(c1cc2ccccc2s1)N(O)C(N)=O` (centres unmarked) [Zileuton], the ThS net change rises from 398 to 410.

First: NC(N)=Nc1nc(CSCCC(N)=NS(N)(=O)=O)cs1 [Famotidine]
Second: NCCCNCCSP(=O)(O)O [Amifostine]
The ThS net change of the first is lower: 390 for the first, 392 for the second.

Same assay, conditions: 1280-compound library screen; […]

First: C[C@H]1O[C@@H](O[C@H]2[C@@H](O)C[C@H](O[C@H]3[C@@H](O)C[C@H](O[C@H]4CC[C@@]5(C)[C@H](CC[C@@H]6[C@@H]5C[C@@H](O)[C@]5(C)[C@@H](C7=CC(=O)OC7)CC[C@]65O)C4)O[C@@H]3C)O[C@@H]2C)C[C@H](O)[C@@H]1O [Digoxin]
Second: CC(=O)OCC1=C(C(=O)O)N2C(=O)[C@@H](N)[C@H]2SC1 [Cephalosporanic acid, 7-amino]
The ThS net change of the first is higher: 404 for the first, 378 for the second.

Going from `CCC1(CC)C(=O)C=CNC1=O` [Pyrithyldione] to `CCCCOC(=O)c1ccc(O)cc1` [Butylparaben], the ThS net change falls from 404 to 396.

Work on `CN1C(=O)CCS(=O)(=O)C1c1ccc(Cl)cc1` (centres unmarked) [Chlormezanone] yielded a ThS net change of 389.

Same assay, conditions: flag: p-tau aggregation inhibitor, ThS net change more than 3 SD from mean

In the case of `O=C1CN2Cc3c(ccc(Cl)c3Cl)N=C2N1` [Anagrelide], the “PTAI>3SD” value is reported as “*”.

Same assay, conditions: library screen, ThS fluorescence net change over 16 h with p-tau

First: CN(C)[C@@H]1C(O)=C(C(N)=O)C(=O)[C@@]2(O)C(O)=C3C(=O)c4c(O)cccc4[C@@](C)(O)[C@H]3C[C@@H]12 [Tetracycline hydrochloride]
Second: CC1CCc2cc(F)cc3c(=O)c(C(=O)O)cn1c23 (centres unmarked) [Flumequine]
The ThS net change of the first is lower: 202 for the first, 303 for the second.

Compared with `O=C1CN2Cc3c(ccc(Cl)c3Cl)N=C2N1` [Anagrelide], `COc1ccc(CCN2CCC(Nc3nc4ccccc4n3Cc3ccc(F)cc3)CC2)cc1` [Astemizole] is higher in ThS net change: 22 for the first, 265 for the second.

With `CCCCCCC[N+](CC)(CC)CCCCc1ccc(Cl)cc1.Cc1ccc(S(=O)(=O)[O-])cc1` [Clofilium tosylate] the ThS net change was 326.

Same assay, conditions: p-tau aggregation modulator screen of 1280-compound library; ThS fluorescence net change

First: CC(=O)Oc1cc(C(C)C)c(OCCN(C)C)cc1C.Cl [Moxisylyte hydrochoride]
Second: CN(C)CCC[C@@]1(c2ccc(F)cc2)OCc2cc(C#N)ccc21 [Escitalopram oxalate]
The ThS net change of the first is lower: 358 for the first, 374 for the second.

Compared with `C(=C\c1ccccc1)/CN1CCN(C(c2ccccc2)c2ccccc2)CC1` [Cinnarizine], `CNCCCN1c2ccccc2CCc2ccccc21` [Desipramine hydrochloride] is higher in ThS net change: 356 for the first, 365 for the second.

Compared with `NS(=O)(=O)c1cc(C(=O)O)c(NCc2ccco2)cc1Cl` [Furosemide], `NS(=O)(=O)c1cc2c(cc1Cl)N=CNS2(=O)=O` [Chlorothiazide] is lower in ThS net change: 360 for the first, 359 for the second.

Compared with `O=C1CCC(N2C(=O)c3ccccc3C2=O)C(=O)N1` (centres unmarked) [Thalidomide], `Cc1ccccc1N1C(=O)c2cc(S(N)(=O)=O)c(Cl)cc2NC1C` (centres unmarked) [Metolazone] is higher in ThS net change: 334 for the first, 364 for the second.

Going from `OCCN1CCN(CCCN2c3ccccc3Sc3ccc(C(F)(F)F)cc32)CC1` [Fluphenazine dihydrochloride] to `CCCN(CCC)C(=O)C(CCC(=O)O)NC(=O)c1ccccc1` (centres unmarked) [Proglumide], the ThS net change falls from 370 to 331.

Compared with `Cc1ccc(C(=O)c2ccc(CC(=O)O)n2C)cc1` [Tolmetin sodium salt dihydrate], `CC(C)C(=O)Nc1ccc([N+](=O)[O-])c(C(F)(F)F)c1` [Flutamide] is lower in ThS net change: 364 for the first, 331 for the second.

Compared with `C[C@H](CS)C(=O)N1CCC[C@H]1C(=O)O` [Captopril], `CCn1cc(C(=O)O)c(=O)c2cnc(N3CCNCC3)nc21` [Pipemidic acid] is higher in ThS net change: 370 for the first, 377 for the second.

First: CN[C@@H]1[C@H](O)[C@H](NC)[C@H]2O[C@@]3(O)C(=O)C[C@@H](C)O[C@H]3O[C@@H]2[C@H]1O.Cl.Cl [Spectinomycin dihydrochloride]
Second: CC1=NS(=O)(=O)c2cc(Cl)ccc2N1 [Diazoxide]
The ThS net change of the first is higher: 361 for the first, 354 for the second.

First: Cc1cn[nH]c1 [Fomepizole]
Second: NCCc1cc[nH]n1 [Betazole hydrochloride]
The ThS net change of the first is higher: 344 for the first, 333 for the second.

`Nc1[nH]c(=O)ncc1F` [Flucytosine] gave a ThS net change of 334.

Same assay, conditions: p-tau aggregation modulator screen of 1280-compound library; […]

Compared with `C[C@]12COC(=O)C[C@@H]1CC[C@@H]1[C@@H]2CC[C@@]2(C)[C@H]1CC[C@]2(C)O` [Oxandrolone], `COP(=O)(OC)C(O)C(Cl)(Cl)Cl` (centres unmarked) [Trichlorfon] is higher in ThS net change: 338 for the first, 340 for the second.

Compared with `Cc1cc(C)nc([N-]S(=O)(=O)c2ccc(N)cc2)n1.[Na+]` [Sulfamethazine sodium salt], `COc1ccc(C(=O)NCc2cccnc2)cc1C(=O)NCc1cccnc1.O` [Picotamide monohydrate] is lower in ThS net change: 366 for the first, 355 for the second.

Same assay, conditions: p-tau aggregation modulator screen of the compound library, ThS fluorescence net change

First: Nc1ccn([C@@H]2CS[C@H](CO)O2)c(=O)n1 [Lamivudine]
Second: CNc1ncnc2c1ncn2[C@@H]1O[C@H](CO)[C@@H](O)[C@H]1O [N6-methyladenosine]
The ThS net change of the first is higher: 424 for the first, 416 for the second.

Going from `O=C1[C@H](CC[C@H](O)c2ccc(F)cc2)[C@@H](c2ccc(O)cc2)N1c1ccc(F)cc1` [Ezetimibe] to `O=C1NCCN1CCN1CCC(c2cn(-c3ccc(F)cc3)c3ccc(Cl)cc23)CC1` [Sertindole], the ThS net change falls from 466 to 434.

Compared with `C[C@H](CCC(=O)O)[C@H]1CC[C@H]2[C@@H]3[C@@H](O)C[C@@H]4C[C@H](O)CC[C@]4(C)[C@H]3CC[C@]12C` [Urosiol], `CCOC(=O)O[C@]1(C(=O)OCCl)CC[C@H]2[C@@H]3CCC4=CC(=O)C=C[C@]4(C)[C@H]3[C@@H](O)C[C@@]21C` [Loteprednol etabonate] is higher in ThS net change: 426 for the first, 531 for the second.

Going from `CCOC(=O)C(C)(C)Oc1ccc(Cl)cc1` [Clofibrate] to `CN(C)CCN(Cc1ccc(Cl)cc1)c1ccccn1.Cl` [Chloropyramine hydrochloride], the ThS net change falls from 461 to 421.

Going from `CCC(=O)[C@@]1(C)[C@H](C)C[C@H]2[C@@H]3CCC4=CC(=O)C=C[C@]4(C)[C@H]3[C@@H](O)C[C@@]21C` [Rimexolone] to `CC(=O)O[C@@]12CO[C@@H]1C[C@H](O)[C@@]1(C)C(=O)[C@H](O)C3=C(C)[C@@H](OC(=O)[C@H](O)[C@@H](NC(=O)OC(C)(C)C)c4ccccc4)C[C@@](O)([C@@H](OC(=O)c4ccccc4)[C@H]21)C3(C)C` [Docetaxel], the ThS net change rises from 434 to 542.

First: CC(=O)Nc1ccc(CC(=O)O)cc1 [Actarit]
Second: CC(=O)Oc1ccccc1C(=O)O [Acetylsalicylic acid]
The ThS net change of the first is lower: 435 for the first, 492 for the second.

First: CC(=O)SCC(Cc1ccccc1)C(=O)NCC(=O)OCc1ccccc1 (centres unmarked) [Racecadotril]
Second: CC1(C)S[C@@H]2[C@H](NC(=O)Cc3ccccc3)C(=O)N2[C@H]1C(=O)O.CC1(C)S[C@@H]2[C@H](NC(=O)Cc3ccccc3)C(=O)N2[C@H]1C(=O)O.c1ccc(CNCCNCc2ccccc2)cc1 [Benzathine benzylpenicillin]
The ThS net change of the first is higher: 462 for the first, 455 for the second.

First: CCC(C)C(N)C1=NC(C(=O)N[C@@H](CC(C)C)C(=O)N[C@H](CCC(=O)O)C(=O)N[C@H](C(=O)N[C@H]2CCCCNC(=O)[C@H](CC(N)=O)NC(=O)[C@@H](CC(=O)O)NC(=O)[C@H](Cc3cnc[nH]3)NC(=O)[C@@H](Cc3ccccc3)NC(=O)[C@H]([C@@H](C)CC)NC(=O)[C@@H](CCCN)NC2=O)[C@@H](C)CC)CS1 (some centres unmarked) [Bacitracin] (X2-L[dE]IK[dOrn]I[dF]H[dD]N; lactam 4-C)
Second: CCOc1nc2cccc(C(=O)O)c2n1Cc1ccc(-c2ccccc2-c2nnn[nH]2)cc1 [Candesartan]
The ThS net change of the first is higher: 479 for the first, 415 for the second.

In the case of `CN1CCN2c3ncccc3Cc3ccccc3C2C1` (centres unmarked) [Mirtazapine], the ThS net change is reported as 534.
